# Assay results as given in patent US20150258168A1, “MODULATION OF PODOPLANIN MEDIATED PLATELET ACTIVATION” (OKLAHOMA MEDICAL RESEARCH FOUNDATION, priority 2012, published 2015).
# Entries after “also recorded” stand apart in the source; their conditions may differ.
# Test system: NE-Pdpn^−/− mice
# Assay: tMCAO-induced ischemia/reperfusion, brain bleeding and Evans blue leakage
# Type: in vivo
# Conditions: NE-Pdpn^−/− mice after tMCAO (1.5 hr ischemia and 24 hr reperfusion), 100 mg/kg body weight, i.p., n=2/group, pilot experiment
# Method: FIG. 12. […] Gross images of cronal sections of NE− Pdpn^−/− brains. The mice (6-wks-old) were treated either with SEW2871 or DMSO (solvent of SEW2871) immediately after reperfusion. 24 hrs after the reperfusion, mice were intravenously injected with Evans blue, sacrificed and immediately perfused with saline and 4% PFA. Arrows show bleeding. Asterisks show leakage of Evans blue. R, right side (tMCAO side).
# To determine the role of PDPN in astrocytes in protecting vascular integrity in the adult brain after injury, the inventor has have established a transient middle cerebral artery occlusion (tMCAO)-induced ischemia/reperfusion model that is widely accepted as a model for secondary hemorrhage in human patients with ischemic stroke (Fan et al., 2010). […] In addition, he will include Magnetic Resonance Imaging (MRI) to detect early hemorrhage, monitor its progress, and quantify bleeding volume (every 10 h). […]
# The S1P receptor S1P1 is highly expressed on vascular endothelial cells (Kono et al., 2004). […] Cerebral vascular permeability/edema will be detected by intravenous injection of Evans blue and the wet/dry ratio of the brains. Vascular integrity will be analyzed by confocal imaging and/or TEM as described in C1.3.3. […]
smiles,measurement,setting,value
FC(F)(F)c1cccc(-c2noc(-c3cc(-c4ccccc4)c(C(F)(F)F)s3)n2)c1 [SEW2871],vascular leakage,Evans blue,ameliorated
same,brain bleeding,100 mg/kg,ameliorated; also recorded: ameliorates brain bleeding
